From paper PMC6943709, “Synergistic Inhibition of Acetylcholinesterase by Alkaloids Derived from Stephaniae Tetrandrae Radix, Coptidis Rhizoma and Phellodendri Chinensis Cortex” (Molecules, 2019)
Read-outs that look alike come from different tables or passages of the source.

Molecular target: T1, Acetylcholinesterase (AChE) (Mus musculus, UniProt P21836)
T1 construct: The assay medium consisted of brain lysate (5 mg/mL) containing different concentrations of testing drugs; from tissue; host or cells: mouse brain lysate
T1 sequence (P21836 32-614): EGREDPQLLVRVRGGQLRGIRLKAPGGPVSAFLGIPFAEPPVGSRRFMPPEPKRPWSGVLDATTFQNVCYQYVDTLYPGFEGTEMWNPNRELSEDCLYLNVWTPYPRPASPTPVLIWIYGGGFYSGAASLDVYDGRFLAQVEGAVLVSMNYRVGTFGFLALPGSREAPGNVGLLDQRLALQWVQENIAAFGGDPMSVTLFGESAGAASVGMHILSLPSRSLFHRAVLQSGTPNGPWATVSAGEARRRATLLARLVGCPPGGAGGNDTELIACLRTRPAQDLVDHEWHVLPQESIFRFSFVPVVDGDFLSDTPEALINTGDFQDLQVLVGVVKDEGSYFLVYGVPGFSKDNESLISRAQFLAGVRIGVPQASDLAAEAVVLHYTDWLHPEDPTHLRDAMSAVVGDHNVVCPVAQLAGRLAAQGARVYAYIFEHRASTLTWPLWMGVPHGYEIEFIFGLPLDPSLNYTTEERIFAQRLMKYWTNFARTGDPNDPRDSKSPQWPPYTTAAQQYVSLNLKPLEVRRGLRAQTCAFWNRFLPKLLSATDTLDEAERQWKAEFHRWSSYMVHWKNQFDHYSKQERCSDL
Test: biochemical
Assay type: biochemical
Details: for AChE Inhibitory Activity: ranking by IC50, molar concentration (alkaloids)
Protocol: The combinations of fangchinoline–coptisine/berberine at concentration ratios of 1:5, 1:2, 1:1, and 2:1 were individually prepared by mixing appropriate volumes of fangchinoline and coptisine or berberine stock solutions. The solutions of fangchinoline–coptisine combinations (with initial system concentrations 4:20, 10:20, 20:20, and 20:10 μM, respectively) were diluted into seven concentrations by DMSO, respectively. The solutions of fangchinoline–berberine combinations (with initial system concentrations 2:10, 5:10, 10:10, and 20:10 μM, respectively) were diluted into seven concentrations by DMSO, respectively. The stocks of tetrandrine, epiberberine, and palmatine were taken appropriately and diluted into six concentrations (with initial system concentrations 30, 100, and 50 μM, respectively) by DMSO, respectively.
The mouse brain lysate (0.1 g/mL, containing 10 mM HEPES (pH 7.4), 1 mM EDTA, 1 mM EGTA, 150 mM NaCl, 0.5% triton X-100, 10 μg/mL leupeptin, 10 μg/mL aprotinin, 10 μg/mL pepstatin, and 50 μg/mL benzamidine HCL) was prepared. AChE enzymatic activity was assayed by 96-well microtiter plate with a final volume of 200 μL, according to the Ellman method. […] Briefly, the mixture of brain lysate containing the testing drugs, Na2HPO4 buffer, and iso-OMPA solution were incubated at 37 °C for 10 min, and then ATCh and DNTB solutions were added. The reaction solution was incubated at 37 °C for 30 min, and AChE activity was determined by measuring the absorbance at 405 nm. To eliminate the drug–solvent influence on AChE enzymatic activity, the concentration of DMSO was controlled at 0.5% in the 200 μL reaction volume. In order to correct for color interference at 405 nm, a background color contrast group without brain lysate and a drug color contrast group without brain lysate were set, respectively. […] Tacrine was used as a positive control. Protein concentrations were measured with a kit from Bio-Rad (Hercules, CA, USA).

| SMILES | IC50 | AChE Inhibitory Activity | IC50 (single alkaloids, mouse brain lysate, Mean ± SEM, n = 3, read-out: IC50) | AChE inhibitory potency (mouse brain lysate, result in words) |
| --- | --- | --- | --- | --- |
| COc1ccc2cc3[n+](cc2c1OC)CCc1cc2c(cc1-3)OCO2 [Berberine] | 2.33 ± 0.16 µM | +++ (for molar concentration, “+++”, “++”, and “+” represent IC50 values of 1–5, 5–10 and 10–20 μM, respectively) |  |  |
| c1c2c(cc3c1OCO3)-c1cc3ccc4c(c3c[n+]1CC2)OCO4 [Coptisine] | 13.5 ± 1.48 µM | + (for molar concentration, “+++”, “++”, and “+” represent IC50 values of 1–5, 5–10 and 10–20 μM, respectively) |  |  |
| COc1cc2c(cc1OC)-c1cc3ccc4c(c3c[n+]1CC2)OCO4 [Epiberberine] |  | + (for molar concentration, “+++”, “++”, and “+” represent IC50 values of 1–5, 5–10 and 10–20 μM, respectively) | 18.7 ± 0.83 µM |  |
| COc1ccc2cc1Oc1ccc(cc1)C[C@H]1c3cc(c(OC)cc3CCN1C)Oc1c(O)c(OC)cc3c1[C@H](C2)N(C)CC3 [Fangchinoline] | 2.17 ± 0.05 µM | +++ (for molar concentration, “+++”, “++”, and “+” represent IC50 values of 1–5, 5–10 and 10–20 μM, respectively) |  |  |
| COc1cc2c(cc1OC)-c1cc3ccc(OC)c(OC)c3c[n+]1CC2 [Palmatine] | 6.52 ± 0.84 µM | ++ (for molar concentration, “+++”, “++”, and “+” represent IC50 values of 1–5, 5–10 and 10–20 μM, respectively) |  |  |
| COc1ccc2cc1Oc1ccc(cc1)C[C@H]1c3cc(c(OC)cc3CCN1C)Oc1c(OC)c(OC)cc3c1[C@H](C2)N(C)CC3 [Tetrandrine] |  | − |  | did not show AChE inhibitory potency |
